Measured values as given in ChEMBL document CHEMBL5579896, “Discovery of 2-Aryl-4-aminoquinazolin-Based LSD1 Inhibitors to Activate Immune Response in Gastric Cancer” (J Med Chem, 2024).
The source made the active and inactive calls. No cut-off for these calls is given here.

Key:
[1] = test system: BGC-823; test: Anticancer activity against human BGC-823 cells cocultured with human monocytes assessed as increase in CD3/CD28 activated T-cell killing response incubated for 5 days by microscopic analysis; assay type: functional, cell-based; conditions: dose 2-8 µM, time 5.0 day
[2] = test system: BGC-823; test: Anticancer activity against LSD-1 knockout human BGC-823 cells cocultured with human monocytes assessed as increase in CD3/CD28 activated T-cell killing response at 2 to 8 uM incubated for 5 days by microscopic analysis; assay type: functional, cell-based; conditions: dose 2-8 µM, time 5.0 day
[3] = test system: MFC; test: Antitumor activity against MFC cells implanted in mouse assessed as reduction in tumor growth at 10 to 40 mg/kg/day, po administered daily for 2 weeks and measured every 2 days; assay type: functional, organism-based; conditions: dose 10-40 mg/kg/day
[4] = test system: MFC; test: Antitumor activity against MFC cells implanted in mouse assessed as reduction in tumor size at 10 to 40 mg/kg/day, po administered daily for 2 weeks and measured every 2 days; assay type: functional, organism-based; conditions: dose 10-40 mg/kg/day
[5] = test system: MFC; test: Antitumor activity against MFC cells implanted in mouse assessed as reduction in tumor weight at 10 to 40 mg/kg/day, po administered daily for 2 weeks and measured every 2 days; assay type: functional, organism-based; conditions: dose 10-40 mg/kg/day
[6] = Toxicity in mouse implanted with MFC assessed as reduction in body weight at 10 to 40 mg/kg/day, po administered daily for 2 weeks and measured every 2 days; assay type: organism-based; conditions: in vivo, 336 h, dose 10-40 mg/kg/day
[7] = Toxicity in mouse implanted with MFC assessed as heart damage at 10 to 40 mg/kg/day, po administered daily for 2 weeks and measured every 2 days by H and E staining based assay; assay type: organism-based; conditions: in vivo, 336 h, dose 10-40 mg/kg/day
[8] = Toxicity in mouse implanted with MFC assessed as liver damage at 10 to 40 mg/kg/day, po administered daily for 2 weeks and measured every 2 days by H and E staining based assay; assay type: organism-based; conditions: in vivo, 336 h, dose 10-40 mg/kg/day
[9] = Toxicity in mouse implanted with MFC assessed as spleen damage at 10 to 40 mg/kg/day, po administered daily for 2 weeks and measured every 2 days by H and E staining based assay; assay type: organism-based; conditions: in vivo, 336 h, dose 10-40 mg/kg/day
[10] = Toxicity in mouse implanted with MFC assessed as lung damage at 10 to 40 mg/kg/day, po administered daily for 2 weeks and measured every 2 days by H and E staining based assay; assay type: organism-based; conditions: in vivo, 336 h, dose 10-40 mg/kg/day
[11] = Toxicity in mouse implanted with MFC assessed as kidney damage at 10 to 40 mg/kg/day, po administered daily for 2 weeks and measured every 2 days by H and E staining based assay; assay type: organism-based; conditions: in vivo, 336 h, dose 10-40 mg/kg/day
[12] = test system: MFC; test: Antitumor activity against MFC cells implanted in mouse assessed as reduction in Ki67 expression at 10 to 40 mg/kg/day, po administered daily for 2 weeks and measured every 2 days; assay type: functional, organism-based; conditions: dose 10-40 mg/kg/day
[13] = test system: MFC; test: Downregulation of PD-L1 expression in MFC cells implanted in mouse at 10 to 40 mg/kg/day, po administered daily for 2 weeks and measured every 2 days by Western blotting analysis; assay type: functional, organism-based; conditions: dose 10-40 mg/kg/day
[14] = test system: MFC; test: Antitumor activity against MFC cells implanted in mouse assessed as increase in infiltration of CD4+ cells at 10 to 40 mg/kg/day, po administered daily for 2 weeks and measured every 2 days by immunohistochemistry assay; assay type: functional, organism-based; conditions: dose 10-40 mg/kg/day
[15] = test system: MFC; test: Antitumor activity against MFC cells implanted in mouse assessed as increase in infiltration of CD8+ cells at 10 to 40 mg/kg/day, po administered daily for 2 weeks and measured every 2 days by immunohistochemistry assay; assay type: functional, organism-based; conditions: dose 10-40 mg/kg/day
[16] = Drug uptake in ICR mouse plasma at 40 mg/kg, po; assay type: ADME, organism-based; conditions: in vivo
[17] = Half-life in ICR mouse at 40 mg/kg, po measured upto 24 hrs by LC-MS/MS analysis; assay type: ADME, organism-based; conditions: in vivo
[18] = Cmax in ICR mouse at 40 mg/kg, po measured upto 24 hrs by LC-MS/MS analysis; assay type: ADME, organism-based; conditions: in vivo
[19] = AUC in ICR mouse at 40 mg/kg, po measured upto 24 hrs by LC-MS/MS analysis; assay type: ADME, organism-based; conditions: in vivo

In the case of `CCN(CC)c1ccc(Nc2nc(-c3ccc(S(C)(=O)=O)cc3)nc3ccccc23)cc1`, the Activity [1] is reported as “Dose-Dependent Effect”, the Activity [2] is reported as “inactive” and the Activity [3] is reported as “Active”. The Activity [4] was “Active”, the Activity [5] was “Active” and the Activity [6] was “Non-Toxic”. For the same molecule, the Activity [7] was “Non-Toxic”, the Activity [8] was “Non-Toxic” and the Activity [9] was “Non-Toxic”. For the same molecule, the Activity [10] was “Non-Toxic”, the Activity [11] was “Non-Toxic” and the Activity [12] was “Active”. For the same molecule, the Activity [13] was “Active”, the Activity [14] was “Active” and the Activity [15] was “Active”. For the same molecule, the Drug uptake [16] was “Active”, the half-life [17] was 1.22 h and the Cmax [18] was 613 ng/mL. The AUC at 24 h [19] was 2250 ng·h/mL.
